By EC50 is commonly meant the concentration at which the effect is half-maximal.

Our source for the EC50 values is patent publication US9938278B2, “FXR (NR1H4) modulating compounds” (Gilead Sciences, Inc., priority 2014, dated 2018).

In this experiment the target is T1, human FXR alpha ligand binding domain (Homo sapiens, UniProt Q96RI1).
T1 construct: made in house; host or cells: E. coli BL21 (DE3), vector pDEST15
T1 sequence (Q96RI1 187-472 isoform Q96RI1-2): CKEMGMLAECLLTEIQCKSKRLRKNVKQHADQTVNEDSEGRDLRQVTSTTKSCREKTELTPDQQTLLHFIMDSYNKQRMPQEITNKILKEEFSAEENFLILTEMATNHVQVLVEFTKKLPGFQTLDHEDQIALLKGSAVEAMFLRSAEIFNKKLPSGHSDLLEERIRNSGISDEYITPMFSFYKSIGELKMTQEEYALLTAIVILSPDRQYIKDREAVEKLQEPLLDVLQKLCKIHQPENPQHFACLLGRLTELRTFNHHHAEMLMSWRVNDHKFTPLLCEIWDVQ
Nature of the experiment: FRET Activity Assay (ligand mediated cofactor peptide interaction). The class given is biochemical. To be noted: LANCE time-resolved FRET; GST-FXR-LBD with biotinylated SRC-1 peptide (676-700); read-out: agonistic potential EC50. The protocol: Assays FRET Activity Assay Determination of a ligand mediated cofactor peptide interaction to quantify ligand binding to the nuclear receptor FXR was performed as follows: Preparation of human FXR alpha ligand binding domain: The human FXRalpha LBD was expressed in E. coli strain BL21 (DE3) as an N-terminally GST tagged fusion protein. The DNA encoding the FXR ligand binding domain was cloned into vector pDEST15 (Invitrogen). Expression was under control of an IPTG inducible T7 promoter. The amino acid boundaries of the ligand binding domain were amino acids 187-472 of Database entry NM_005123 (RefSeq). Expression and purification of the FXR-LBD: An overnight preculture of a transformed E. coli strain was diluted 1:20 in LB-Ampicillin medium and grown at 30° C. to an optical density of OD600=0.4-0.6. Gene expression was then induced by addition of 0.5 mM IPTG. […] The protein was analysed by SDS-Page.
The method measures the ability of putative ligands to modulate the interaction between the purified bacterial expressed FXR ligand binding domain (LBD) and a synthetic biotinylated peptide based on residues 676-700 of SRC-1 (LCD2, 676-700). […] The ligand binding domain (LBD) of FXR was expressed as fusion protein with GST in BL-21 cells using the vector pDEST15. […] The LANCE signal was detected by a Perkin Elmer VICTOR2VTM Multilabel Counter. […]
For orientation: Time-resolved FRET reads energy transfer from a long-lived donor to a nearby acceptor.

As to `CC(C)n1nc(C(=O)O)cc1N1CCC(O)(c2ccc(OCc3c(-c4c(Cl)cccc4Cl)noc3C3CC3)cc2Cl)CC1` [Example 1, 5-(4-(2-Chloro-4-((5-cyclopropyl-3-(2,6-dichlorophenyl)isoxazol-4-yl)methoxy)phenyl)-4-hydroxypiperidin-1-yl)-1-isopropyl-1H-pyrazole-3-carboxylic Acid], the EC50 is less than 25 nM.
